In paper PMC400651 (Breast Cancer Research, 2003) one finds IC50 data, which are given here for one compound.

The structures appear in SMILES notation.

This test addresses aryl hydrocarbon receptor (AhR) (Homo sapiens, UniProt P35869). Description: [3H]TCDD radioligand competition in whole T47D cells. The test is classed as cell-based. On the technique in general: Loss of bound radioactivity is the signal in a displacement assay; it reports binding, not function.

Chain of aryl hydrocarbon receptor (AhR) (P35869 11-848): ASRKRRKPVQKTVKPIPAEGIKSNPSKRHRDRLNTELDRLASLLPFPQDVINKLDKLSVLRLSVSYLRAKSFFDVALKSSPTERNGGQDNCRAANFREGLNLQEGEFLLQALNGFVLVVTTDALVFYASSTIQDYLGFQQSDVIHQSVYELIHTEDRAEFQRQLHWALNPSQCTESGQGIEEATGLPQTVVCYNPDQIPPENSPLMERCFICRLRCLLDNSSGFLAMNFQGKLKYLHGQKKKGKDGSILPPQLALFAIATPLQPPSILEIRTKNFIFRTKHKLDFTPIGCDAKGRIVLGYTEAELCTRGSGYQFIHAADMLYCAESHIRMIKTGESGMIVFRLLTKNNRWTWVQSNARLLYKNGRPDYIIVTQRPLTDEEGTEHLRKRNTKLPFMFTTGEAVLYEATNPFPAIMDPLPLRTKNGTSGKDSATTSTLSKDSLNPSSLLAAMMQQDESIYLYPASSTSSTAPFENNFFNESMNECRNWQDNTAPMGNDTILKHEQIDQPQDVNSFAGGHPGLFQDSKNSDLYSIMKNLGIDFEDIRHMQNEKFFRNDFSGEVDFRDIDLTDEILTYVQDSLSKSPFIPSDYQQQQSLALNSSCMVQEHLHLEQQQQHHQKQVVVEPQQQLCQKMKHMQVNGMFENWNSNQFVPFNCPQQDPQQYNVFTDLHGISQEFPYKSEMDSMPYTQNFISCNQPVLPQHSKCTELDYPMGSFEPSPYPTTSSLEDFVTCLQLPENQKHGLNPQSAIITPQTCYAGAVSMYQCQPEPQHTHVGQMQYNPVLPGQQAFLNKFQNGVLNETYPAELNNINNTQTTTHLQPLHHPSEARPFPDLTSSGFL

In the case of `O=C(O)/C=C/c1ccc(O)c(O)c1` [caffeic acid], the IC50 was found to be 158 nM.

For orientation: IC50 means the concentration that inhibits the measured activity by half. Read a high IC50 as a need for much substance.
